This note sets out measurements from patent US20260103461A1, “ESTROGEN RECEPTOR MODULATORS AND USES THEREOF” (Olema Pharmaceuticals, Inc., priority 2022, published 2026).

In the assay the target is T1, estrogen receptor (Homo sapiens, UniProt P03372).
T1 construct: endogenous in cells; host or cells: ECC-1 cells
T1 sequence (P03372 1-595): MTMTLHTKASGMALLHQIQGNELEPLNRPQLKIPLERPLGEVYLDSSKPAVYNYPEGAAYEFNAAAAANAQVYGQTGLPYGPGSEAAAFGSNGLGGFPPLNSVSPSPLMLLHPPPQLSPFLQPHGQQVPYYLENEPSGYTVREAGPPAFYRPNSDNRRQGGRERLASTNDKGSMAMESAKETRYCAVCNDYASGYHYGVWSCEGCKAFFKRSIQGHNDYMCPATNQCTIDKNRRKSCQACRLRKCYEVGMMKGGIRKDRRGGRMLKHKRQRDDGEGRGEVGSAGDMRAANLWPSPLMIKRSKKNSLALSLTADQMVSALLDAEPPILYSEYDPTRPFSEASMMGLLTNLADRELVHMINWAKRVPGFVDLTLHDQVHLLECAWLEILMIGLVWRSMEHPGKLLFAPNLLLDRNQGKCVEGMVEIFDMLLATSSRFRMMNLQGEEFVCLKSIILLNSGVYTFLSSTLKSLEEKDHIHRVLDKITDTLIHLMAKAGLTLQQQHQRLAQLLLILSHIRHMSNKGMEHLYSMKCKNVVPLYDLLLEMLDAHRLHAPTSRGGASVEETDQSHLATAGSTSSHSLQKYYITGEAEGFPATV
Put plainly: AP (alkaline phosphatase) assay in ECC-1 cells, agonist mode and antagonist mode. It counts as cell-based. Conditions: 3 days, absence of E2 (agonist mode) or 500 pM E2 (antagonist mode), AP activity normalized to 500 pM E2 alone. On the procedure:
ECC-1 cells were trypsinized and resuspended in hormone-depleted media and plated at a density of 15 k cells per well into a 96-well plate for at least 4 hours. Cells were treated with test compounds in the absence of E2 (for agonist mode) or in the presence of 500 pM E2 (for antagonist mode) for 3 days and plates were subsequently frozen at −80° C. Thawed plates were incubated with a chromogenic substrate of AP, p-nitrophenyl phosphate (Thermo Fisher Scientific), for 40 minutes at 42° C., and absorbances were read at 405 nm. AP activity was normalized to the activity of 500 pM E2 alone.
The compound numbers correspond to the compound numbers of Table 1 and 2. Compounds having an activity designated as “+” provided estrogen receptor agonism having (i) at least 80% increase in the E2-normalized signal in the AP assay (agonist mode) and (ii) no more than 80% reduction in the E2-normalized signal in the AP assay (antagonist mode). Compounds having an activity designated as “++” provided estrogen receptor antagonism having (i) between 10% and 80% increase in the E2-normalized signal in the AP assay (agonist mode) and (ii) between 10% and 80% reduction in the E2-normalized signal in the AP assay (antagonist mode).

Structures are written as SMILES.

`C[C@@H]1Cc2c([nH]c3ccccc23)[C@@H](c2ccc(O[C@H]3CCN(CCCF)C3)s2)N1CC(C)(C)F` [Example I-4, (3S)-3-({5-[(1S,3R)-2-(2-fluoro-2-methylpropyl)-3-methyl-1H,2H,3H,4H,9H-pyrido[3,4-b]indol-1-yl]thiophen-2-yl}oxy)-1-(3-fluoropropyl)pyrrolidine]: the “Activity (estrogen receptor modulation, agonism and antagonism)” value (from here on “Activity”) was “+++ (estrogen receptor antagonism (i) with pIC50 greater than 7.5 and at least a 10% reduction in the E2-normalized signal in the AP assay (antagonist mode); and no more than 10% increase in E2-normalized signal in the AP assay (agonist mode))”.

In the case of `C[C@@H]1Cc2c([nH]c3ccccc23)[C@@H](c2sc(OC3CN(CCCF)C3)cc2F)N1CC(F)(F)CO` [Example I-26, 2,2-difluoro-3-[(1S,3R)-1-[3-fluoro-5-[1-(3-fluoropropyl)azetidin-3-yl]oxy-2-thienyl]-3-methyl-1,3,4,9-tetrahydropyrido[3,4-b]indol-2-yl]propan-1-ol], the “Activity” value was “+++ (estrogen receptor antagonism (i) with pIC50 greater than 7.5 and at least a 10% reduction in the E2-normalized signal in the AP assay (antagonist mode); and no more than 10% increase in E2-normalized signal in the AP assay (agonist mode))”.

For `C[C@@H]1Cc2c([nH]c3ccccc23)[C@@H](c2ccc(OC3CN(CCCF)C3)s2)N1CC(F)(F)F` [Example I-21, (1S,3R)-1-[5-[1-(3-fluoropropyl)azetidin-3-yl]oxy-2-thienyl]-3-methyl-2-(2,2,2-trifluoroethyl)-1,3,4,9-tetrahydropyrido[3,4-b]indole], the “Activity” value is “++ (estrogen receptor antagonism having (i) between 10% and 80% increase in the E2-normalized signal in the AP assay (agonist mode) and (ii) between 10% and 80% reduction in the E2-normalized signal in the AP assay (antagonist mode))”.

Consider `C[C@@H]1C[C@@H](Oc2ncc([C@@H]3c4[nH]c5ccccc5c4C[C@@H](C)N3CC(F)(F)CO)s2)CN1CCCF` [Example I-30, 2,2-difluoro-3-[(1S,3R)-1-[2-[(3R,5R)-1-(3-fluoropropyl)-5-methyl-pyrrolidin-3-yl]oxythiazol-5-yl]-3-methyl-1,3,4,9-tetrahydropyrido[3,4-b]indol-2-yl]propan-1-ol], for which the “Activity” value was “+ (estrogen receptor agonism having (i) at least 80% increase in the E2-normalized signal in the AP assay (agonist mode) and (ii) no more than 80% reduction in the E2-normalized signal in the AP assay (antagonist mode))”.

Take `C[C@@H]1Cc2c([nH]c3ccccc23)[C@@H](c2ncc(OC3CN(CCCF)C3)s2)N1CC(F)F` [Example I-18, 2-[(1S,3R)-2-(2,2-difluoroethyl)-3-methyl-1,3,4,9-tetrahydropyrido[3,4-b]indol-1-yl]-5-[1-(3-fluoropropyl)azetidin-3-yl]oxy-thiazole]: the “Activity” value is “++ (estrogen receptor antagonism having (i) between 10% and 80% increase in the E2-normalized signal in the AP assay (agonist mode) and (ii) between 10% and 80% reduction in the E2-normalized signal in the AP assay (antagonist mode))”.

In the case of `CCCN1CC[C@@H](Oc2ccc([C@@H]3c4[nH]c5ccccc5c4C[C@@H](C)N3CC(C)(C)F)s2)C1` [Example I-10, (1S,3R)-2-(2-fluoro-2-methyl-propyl)-3-methyl-1-[5-[(3R)-1-propylpyrrolidin-3-yl]oxy-2-thienyl]-1,3,4,9-tetrahydropyrido[3,4-b]indole], the “Activity” value was “+ (estrogen receptor agonism having (i) at least 80% increase in the E2-normalized signal in the AP assay (agonist mode) and (ii) no more than 80% reduction in the E2-normalized signal in the AP assay (antagonist mode))”.

`C[C@@H]1Cc2c([nH]c3ccccc23)[C@@H](c2ccc(O[C@@H]3CCN(CCCF)C3)s2)N1CC(F)(F)F` [Example I-20, (1S,3R)-1-[5-[(3R)-1-(3-fluoropropyl)pyrrolidin-3-yl]oxy-2-thienyl]-3-methyl-2-(2,2,2-trifluoroethyl)-1,3,4,9-tetrahydropyrido[3,4-b]indole]: the “Activity” value was “++ (estrogen receptor antagonism having (i) between 10% and 80% increase in the E2-normalized signal in the AP assay (agonist mode) and (ii) between 10% and 80% reduction in the E2-normalized signal in the AP assay (antagonist mode))”.

For the compound `C[C@@H]1Cc2c([nH]c3ccccc23)[C@@H](c2cnc(O[C@@H]3CCN(CCCF)C3)s2)N1CC(F)(F)CO` [Example I-28, 2,2-difluoro-3-[(1S,3R)-1-[2-[(3R)-1-(3-fluoropropyl)pyrrolidin-3-yl]oxythiazol-5-yl]-3-methyl-1,3,4,9-tetrahydropyrido[3,4-b]indol-2-yl]propan-1-ol], the “Activity” value is “+++ (estrogen receptor antagonism (i) with pIC50 greater than 7.5 and at least a 10% reduction in the E2-normalized signal in the AP assay (antagonist mode); and no more than 10% increase in E2-normalized signal in the AP assay (agonist mode))”.

On to `C[C@@H]1Cc2c([nH]c3ccccc23)[C@@H](c2ccc(O[C@@H]3CCN(CCC(F)F)C3)s2)N1CC(C)(C)F` [Example I-15, (1S,3R)-1-[5-[(3R)-1-(3,3-difluoropropyl)pyrrolidin-3-yl]oxy-2-thienyl]-2-(2-fluoro-2-methyl-propyl)-3-methyl-1,3,4,9-tetrahydropyrido[3,4-b]indole], for which the “Activity” value was “+ (estrogen receptor agonism having (i) at least 80% increase in the E2-normalized signal in the AP assay (agonist mode) and (ii) no more than 80% reduction in the E2-normalized signal in the AP assay (antagonist mode))”.

Regarding `C[C@@H]1Cc2c([nH]c3ccccc23)[C@@H](c2ccc(OC3CN(CCCF)C3)s2)N1CC(F)(F)CO` [Example I-12, 2,2-difluoro-3-[(1S,3R)-1-[5-[1-(3-fluoropropyl)azetidin-3-yl]oxy-2-thienyl]-3-methyl-1,3,4,9-tetrahydropyrido[3,4-b]indol-2-yl]propan-1-ol], the “Activity” value was “+++ (estrogen receptor antagonism (i) with pIC50 greater than 7.5 and at least a 10% reduction in the E2-normalized signal in the AP assay (antagonist mode); and no more than 10% increase in E2-normalized signal in the AP assay (agonist mode))”.

Turning to `C[C@@H]1Cc2c([nH]c3ccccc23)[C@@H](c2ccc(O[C@@H]3CCN(CCCF)C3)s2)N1CC(F)F` [Example I-19, (1S,3R)-2-(2,2-difluoroethyl)-1-[5-[(3R)-1-(3-fluoropropyl)pyrrolidin-3-yl]oxy-2-thienyl]-3-methyl-1,3,4,9-tetrahydropyrido[3,4-b]indole], the “Activity” value was “+++ (estrogen receptor antagonism (i) with pIC50 greater than 7.5 and at least a 10% reduction in the E2-normalized signal in the AP assay (antagonist mode); and no more than 10% increase in E2-normalized signal in the AP assay (agonist mode))”.

`C[C@@H]1Cc2c([nH]c3ccccc23)[C@@H](c2ncc(O[C@@H]3CCN(CCCF)C3)s2)N1CC(F)(F)CO` [Example I-24, 2,2-difluoro-3-[(1S,3R)-1-[5-[(3R)-1-(3-fluoropropyl)pyrrolidin-3-yl]oxythiazol-2-yl]-3-methyl-1,3,4,9-tetrahydropyrido[3,4-b]indol-2-yl]propan-1-ol]: the “Activity” value is “++ (estrogen receptor antagonism having (i) between 10% and 80% increase in the E2-normalized signal in the AP assay (agonist mode) and (ii) between 10% and 80% reduction in the E2-normalized signal in the AP assay (antagonist mode))”.
